Source: patent US9925198B2, “Pharmaceutical composition for preventing or treating hearing loss, comprising carbenoxolone or its pharmaceutically acceptable salts as effective compound” (AJOU UNIVERSITY INDUSTRY-ACADEMIC COOPERATION FOUNDATION, priority 2015, dated 2018)
Where “and” joins values, the source holds several entries; their conditions need not be identical. Equal values may be shown once. Entries after “also recorded” stand apart in the source; their conditions may differ. Read-outs that look alike come from different tables or passages of the source.

How the values were obtained:
[1] = test system: ototoxic hearing loss induced by cisplatin; test: Auditory brainstem response (ABR) test, hearing threshold in rats with cisplatin-induced ototoxic hearing loss; assay type: in vivo, SD-rat; details: for hearing threshold (ABR) at 16 kHz / hearing threshold (ABR) at 32 kHz: measured 5 days after; for hearing threshold (ABR) at 16 kHz: tone burst 16 kHz; for hearing threshold (ABR) at 32 kHz: tone burst 32 kHz
Description: Auditory acuity was evaluated by performing an auditory brainstem response (ABR) test on the SD-rat before and after the drug administration. The ABR test was determines the minimum stimuli intensity (dB) that evokes the waveform of wave V by providing tone burst of 16 kHz and 32 kHz using a TDT ABR device as a hearing threshold, and the auditory acuities were measured 1 day before the drug administration and 5 days after the drug administration.

[2] = test system: auditory sensory hair cell stereocilia; test: Phalloidin staining of auditory sensory hair cell stereocilia in cochlea; assay type: in vivo, SD-rat; details: basal turn (32 kHz) and middle turn (16 kHz)
Description: Phalloidin staining was performed on auditory sensory hair cell stereocilia markers of the SD-rats administered with drugs by using the method described above to confirm degrees of loss or damage on auditory cells at sites of the basal turn (32 kHz) and the middle turn (16 kHz).

[3] = test system: auditory outer hair cells; test: Scanning electron microscope (SEM) analysis of cochlea, auditory outer hair cell damage; assay type: in vivo, SD-rat; details: basal turn (32 kHz) and middle turn (16 kHz)
Text: Also, degrees of loss and damage on auditory cells at the basal turn (32 kHz) and the middle turn (16 kHz) in cochlea were confirmed by using a scanning electron microscope (SEM) to analyze the shape of cochlea.

cisplatin-takers = details: cited from earlier work
[4] = cisplatin 16 mg/kg i.p. once + 18α-GA 100 mg/kg daily 2 days before and after cisplatin
[5] = cisplatin 16 mg/kg + 18α-GA 100 mg/kg
[6] = cisplatin 16 mg/kg i.p. once + carbenoxolone sodium 50 mg/kg daily 2 days before and after cisplatin
[7] = cisplatin 16 mg/kg + carbenoxolone sodium 50 mg/kg, vs cisplatin alone
[8] = cisplatin alone 16 mg/kg, compared to control group

With CC1(C)[C@@H](O)CC[C@]2(C)[C@H]3C(=O)C=C4[C@H]5C[C@@](C)(C(=O)O)CC[C@]5(C)CC[C@@]4(C)[C@]3(C)CC[C@@H]12 [18α-GA, 18α-glycyrrhetinic acid] the “hearing thresholds compared with the cisplatin-treated group” value ([1]; cisplatin 16 mg/kg + 18α-GA 100 mg/kg, 16 kHz and 32 kHz) was “no significant difference; also recorded: did not show significant difference”, the “hearing threshold (ABR) at 16 kHz” value [1, 4] was 49.3±4.8 dB and 46.2±4.1 dB and the “hearing threshold (ABR) at 32 kHz” value [1, 4] was 46.2±4.1 dB. The “damage prevention effect (phalloidin staining, FIG. 3)” value [2, 5] was “not exhibited” and the “damage prevention effect (SEM, FIG. 4)” value [3, 5] was “not confirmed”.

In the case of CC1(C)[C@@H](OC(=O)CCC(=O)O)CC[C@]2(C)[C@H]3C(=O)C=C4[C@@H]5C[C@@](C)(C(=O)O)CC[C@]5(C)CC[C@@]4(C)[C@]3(C)CC[C@@H]12 [carbenoxolone sodium], the “hearing threshold (ABR) at 16 kHz” value [1, 6] is reported as 26.3±7.5 dB, the “hearing threshold (ABR) at 32 kHz” value [1, 6] is reported as 28.8±4.8 dB and the “preservation of outer hair cells (phalloidin staining, FIG. 3)” value [2, 7] is reported as “significantly preserved”. For the same molecule, the “preservation of outer hair cells (SEM, FIG. 4)” value [3, 7] was “significantly preserved”.

For N.N.[Cl][Pt][Cl] [cisplatin], the “stereocilia damage (phalloidin staining, FIG. 3)” value [2, 8] is listed as “a number of stereocilia damages were observed”, the “auditory outer hair cell damage (SEM, FIG. 4)” value [3, 8] is listed as “damages on auditory outer hair cells were observed in numbers; also recorded: a number of auditory outer hair cell damages were observed” and the “auditory impairment occurrence frequency” value (cisplatin-takers; children) is listed as “about 50%”. For the same molecule, the “auditory impairment occurrence frequency” value (cisplatin-takers; cisplatin-takers) was “about 30%”.
